{
  "source": "patent US10681909B2",
  "about": "“Herbicidal triazoles” (FMC Corporation, priority 2014, dated 2020)",
  "key": {"ryegrass, Italian": {"tested_on": "ryegrass, Italian", "assay": "Test A postemergence", "assay_type": "in vivo, Lolium multiflorum", "details": "0 to 100 scale (0 no effect, 100 complete control), approx. 10 d", "method_in_brief": "(§1)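 Weed and crop species in loam–sand blend sprayed preemergence on soil or postemergence at 2–10 cm, one- to two-leaf stage, with chemicals in surfactant-containing solvent. Injury rated visually after ~10 d in greenhouse versus untreated controls on a 0–100 scale (100 = complete control).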"}, "buckwheat, wild": {"tested_on": "buckwheat, wild", "assay": "Test D postemergence", "assay_type": "in vivo, Polygonum convolvulus", "details": "scale 0 to 100", "from_the_text": "(§2) Seeds of plant species selected from bluegrass (annual bluegrass, Poa annua), blackgrass (Alopecurus myosuroides), canarygrass (Phalaris minor), chickweed (common chickweed, Stellaria media), galium (catchweed bedstraw, Galium aparine), bromegrass, down (downy bromegrass, Bromus tectorum), Russian thistle (Salsola kali), field poppy (Papaver rhoeas), field violet (Viola arvensis), foxtail, green (green foxtail, Setaria viridis), deadnettle (henbit deadnettle, Lamium amplexicaule), ryegrass, Ital. (Italian ryegrass, Lolium multiflorum), kochia (Kochia scoparia), lambsquarters (Chenopodium album), oilseed rape (Brassica napus), pigweed (Amaranthus retroflexus), chamomile (scentless chamomile, Matricaria inodora), speedwell (bird's-eye speedwell, Veronica persica), barley, spring (spring barley, Hordeum vulgare), wheat, spring (spring wheat, Triticum aestivum), buckwheat, wild (wild buckwheat, Polygonum convolvulus), wild mustard (Sinapis arvensis), oat, wild (wild oat, Avena fatua), radish, wild (wild radish, Raphanus raphanistrum), […]), barley, winter (winter barley, Hordeum vulgare), and wheat, winter (winter wheat, Triticum aestivum) were planted into a silt loam soil and treated preemergence with test chemicals formulated in a non-phytotoxic solvent mixture which included a surfactant. At the same time, these species were planted in pots containing Sunshine Redi-Earth® planting medium comprising spaghnum peat moss, vermiculite, starter nutrients and dolomitic limestone and treated with postemergence applications of the test chemicals formulated in the same manner. Plants ranged in height from 2 to 18 cm (1- to 4-leaf stage). Treated plants and controls were maintained in a controlled growth environment for 14 to 21 d after which time all species were compared to controls and visually evaluated. […] A dash (-) response means no test result."}, "wheat, spring": {"tested_on": "wheat, spring", "assay": "Test D postemergence", "assay_type": "in vivo, Triticum aestivum", "details": "scale 0 to 100", "from_the_text": "as §2"}, "wheat, winter": {"tested_on": "wheat, winter", "assay": "Test D postemergence", "assay_type": "in vivo, Triticum aestivum", "details": "scale 0 to 100", "from_the_text": "as §2"}, "blackgrass": {"tested_on": "blackgrass", "assay": "Test C preemergence", "assay_type": "in vivo, Alopecurus myosuroides", "details": "for Plant response rating (scale of 0 to 100 where 0 is no effect and 100 is complete control): Blackgrass, preemergence; for Blackgrass plant response rating (0 to 100): Preemergence, visual rating after 13 to 15 d", "from_the_text": "(§3) Seeds of plant species selected from blackgrass (Alopecurus myosuroides), ryegrass, Italian (Italian ryegrass, Lolium multiflorum), wheat (winter wheat, Triticum aestivum), galium (catchweed bedstraw, Galium aparine), corn (Zea mays), crabgrass, large (large crabgrass, Digitaria sanguinalis), foxtail, giant, (giant foxtail, Setaria faberii), johnsongrass (Sorghum halepense), lambsquarters (Chenopodium album), morningglory (Ipomoea coccinea), nutsedge, yellow (yellow nutsedge, Cyperus esculentus), pigweed (Amaranthus retroflexus), ragweed (common ragweed, Ambrosia elatior), soybean (Glycine max), barnyardgrass (Echinochloa crus-galli), oilseed rape (Brassica napus), waterhemp (common waterhemp, Amaranthus rudis), and velvetleaf (Abutilon theophrasti) were planted into a blend of loam soil and sand and treated preemergence with test chemicals formulated in a non-phytotoxic solvent mixture which included a surfactant. At the same time, plants selected from these crop and weed species and also chickweed (common chickweed, Stellaria media), oat, wild (wild oat, Avena fatua), and kochia (Kochia scoparia), were planted in pots containing Sunshine Redi-Earth® planting medium comprising spaghnum peat moss, vermiculite, starter nutrients and dolomitic limestone and treated with postemergence applications of test chemicals formulated in the same manner. Plants ranged in height from 2 to 18 cm (1- to 4-leaf stage) for postemergence treatments. […] A dash (-) response means no test result."}, "canarygrass [1]": {"tested_on": "canarygrass", "assay": "Test D preemergence", "assay_type": "in vivo, Phalaris minor", "details": "for Plant response rating: Canarygrass: scale 0 to 100", "from_the_text": "as §2"}, "pigweed": {"tested_on": "pigweed", "assay": "Test C preemergence", "assay_type": "in vivo, Amaranthus retroflexus", "details": "for Plant response rating (scale of 0 to 100 where 0 is no effect and 100 is complete control): Pigweed, preemergence; for Pigweed plant response rating (0 to 100): Preemergence, visual rating after 13 to 15 d", "from_the_text": "as §3"}, "canarygrass [2]": {"tested_on": "canarygrass", "assay": "Test D postemergence", "assay_type": "in vivo, Phalaris minor", "details": "scale 0 to 100", "from_the_text": "as §2"}, "oat, wild": {"tested_on": "oat, wild", "assay": "Test D postemergence", "assay_type": "in vivo, Avena fatua", "details": "scale 0 to 100", "from_the_text": "as §2"}, "ragweed": {"tested_on": "ragweed", "assay": "Test A preemergence", "assay_type": "in vivo, Ambrosia elatior", "details": "0 to 100 scale (0 no effect, 100 complete control)", "method_in_brief": "as §1"}, "bluegrass": {"tested_on": "bluegrass", "assay": "Test D postemergence", "assay_type": "in vivo, Poa annua", "details": "scale 0 to 100", "from_the_text": "as §2"}, "chickweed": {"tested_on": "chickweed", "assay": "Test D postemergence", "assay_type": "in vivo, Stellaria media", "details": "scale 0 to 100", "from_the_text": "as §2"}, "galium": {"tested_on": "galium", "assay": "Test D postemergence", "assay_type": "in vivo, Galium aparine", "details": "scale 0 to 100", "from_the_text": "as §2"}},
  "data": [
    {"compound": "CCOc1nc(-c2ccc(C(F)(F)F)cc2)nn1Cc1ccnc(C(F)(F)F)c1", "note": "[Compound 35, 4-[[5-ethoxy-3-[4-(trifluoromethyl)phenyl]-1H-1,2,4-triazole-1-yl]methyl]-2-(trifluoromethyl)pyridine]", "values": [
      {"measurement": "Plant response rating, Ryegrass, Italian", "setting": "ryegrass, Italian; 31 g ai/ha", "result": 30},
      {"measurement": "Plant response rating, Ryegrass, Italian", "setting": "ryegrass, Italian; 125 g ai/ha", "result": 60},
      {"measurement": "Plant response rating: Buckwheat, Wild", "setting": "buckwheat, wild; 16 g ai/ha", "result": 65},
      {"measurement": "Plant response rating: Buckwheat, Wild", "setting": "buckwheat, wild; 31 g ai/ha", "result": 70},
      {"measurement": "Plant response rating: Buckwheat, Wild", "setting": "buckwheat, wild; 62 g ai/ha", "result": 70},
      {"measurement": "Plant response rating: Buckwheat, Wild", "setting": "buckwheat, wild; 125 g ai/ha", "result": 95},
      {"measurement": "Plant response rating: Wheat, Spring", "setting": "wheat, spring; 16 g ai/ha", "result": 25},
      {"measurement": "Plant response rating: Wheat, Spring", "setting": "wheat, spring; 31 g ai/ha", "result": 40},
      {"measurement": "Plant response rating: Wheat, Spring", "setting": "wheat, spring; 62 g ai/ha", "result": 50},
      {"measurement": "Plant response rating: Wheat, Spring", "setting": "wheat, spring; 125 g ai/ha", "result": 50},
      {"measurement": "Plant response rating: Wheat, Winter", "setting": "wheat, winter; 16 g ai/ha", "result": 20},
      {"measurement": "Plant response rating: Wheat, Winter", "setting": "wheat, winter; 31 g ai/ha", "result": 35},
      {"measurement": "Plant response rating: Wheat, Winter", "setting": "wheat, winter; 62 g ai/ha", "result": 40},
      {"measurement": "Plant response rating: Wheat, Winter", "setting": "wheat, winter; 125 g ai/ha", "result": 45},
      {"measurement": "Plant response rating (scale of 0 to 100 where 0 is no effect and 100 is complete control)", "setting": "blackgrass; 125 g ai/ha", "result": 90},
      {"measurement": "Plant response rating (scale of 0 to 100 where 0 is no effect and 100 is complete control)", "setting": "blackgrass; 250 g ai/ha", "result": 90},
      {"measurement": "Blackgrass plant response rating (0 to 100)", "setting": "blackgrass; 31 g ai/ha", "result": 90},
      {"measurement": "Blackgrass plant response rating (0 to 100)", "setting": "blackgrass; 62 g ai/ha", "result": 85},
      {"measurement": "Plant response rating (0 to 100), Canarygrass", "setting": "canarygrass [1]; 16 g ai/ha, 0 is no effect, 100 is complete control", "result": 45},
      {"measurement": "Plant response rating: Canarygrass", "setting": "canarygrass [1]; 31 g ai/ha", "result": 95},
      {"measurement": "Plant response rating: Canarygrass", "setting": "canarygrass [1]; 62 g ai/ha", "result": 100},
      {"measurement": "Plant response rating: Canarygrass", "setting": "canarygrass [1]; 125 g ai/ha", "result": 100},
      {"measurement": "Plant response rating (scale of 0 to 100 where 0 is no effect and 100 is complete control)", "setting": "pigweed; 125 g ai/ha", "result": 100},
      {"measurement": "Plant response rating (scale of 0 to 100 where 0 is no effect and 100 is complete control)", "setting": "pigweed; 250 g ai/ha", "result": 100},
      {"measurement": "Pigweed plant response rating (0 to 100)", "setting": "pigweed; 31 g ai/ha", "result": 98},
      {"measurement": "Pigweed plant response rating (0 to 100)", "setting": "pigweed; 62 g ai/ha", "result": 100},
      {"measurement": "Plant response rating: Canarygrass", "setting": "canarygrass [2]; 16 g ai/ha", "result": 65},
      {"measurement": "Plant response rating: Canarygrass", "setting": "canarygrass [2]; 31 g ai/ha", "result": 70},
      {"measurement": "Plant response rating: Canarygrass", "setting": "canarygrass [2]; 62 g ai/ha", "result": 75},
      {"measurement": "Plant response rating: Canarygrass", "setting": "canarygrass [2]; 125 g ai/ha", "result": 80},
      {"measurement": "Plant response rating: Oat, Wild", "setting": "oat, wild; 16 g ai/ha", "result": 40},
      {"measurement": "Plant response rating: Oat, Wild", "setting": "oat, wild; 31 g ai/ha", "result": 65},
      {"measurement": "Plant response rating: Oat, Wild", "setting": "oat, wild; 62 g ai/ha", "result": 75},
      {"measurement": "Plant response rating: Oat, Wild", "setting": "oat, wild; 125 g ai/ha", "result": 80},
      {"measurement": "Plant response rating, Ragweed", "setting": "ragweed; 31 g ai/ha", "result": 20},
      {"measurement": "Plant response rating, Ragweed", "setting": "ragweed; 125 g ai/ha", "result": 50},
      {"measurement": "Plant response rating: Bluegrass", "setting": "bluegrass; 16 g ai/ha", "result": 45},
      {"measurement": "Plant response rating: Bluegrass", "setting": "bluegrass; 31 g ai/ha", "result": 70},
      {"measurement": "Plant response rating: Bluegrass", "setting": "bluegrass; 62 g ai/ha", "result": 75},
      {"measurement": "Plant response rating: Bluegrass", "setting": "bluegrass; 125 g ai/ha", "result": 95},
      {"measurement": "Plant response rating: Chickweed", "setting": "chickweed; 16 g ai/ha", "result": 70},
      {"measurement": "Plant response rating: Chickweed", "setting": "chickweed; 31 g ai/ha", "result": 85},
      {"measurement": "Plant response rating: Chickweed", "setting": "chickweed; 62 g ai/ha", "result": 100},
      {"measurement": "Plant response rating: Chickweed", "setting": "chickweed; 125 g ai/ha", "result": 100},
      {"measurement": "Plant response rating: Galium", "setting": "galium; 16 g ai/ha", "result": 70},
      {"measurement": "Plant response rating: Galium", "setting": "galium; 31 g ai/ha", "result": 75},
      {"measurement": "Plant response rating: Galium", "setting": "galium; 62 g ai/ha", "result": 80},
      {"measurement": "Plant response rating: Galium", "setting": "galium; 125 g ai/ha", "result": 80}
    ]}
  ]
}
